In brackets after ≈: the same amount, converted by molar mass. No end group written: not given here.
Experiments:
in vitro = details: human, WI38 normal lung fibroblast cells
[1] = system: human leukocyte (WBC) cells; experiment: Stimulation and proliferation of leukocytes, Alamar Blue; type: cell-based; details: 48 hours
Procedure: In vitro viability of human leukocyte cells in the presence of different peptides at different concentrations was determined by an Alamar Blue protocol. Alamar Blue (Promega, Madison, Wis.) is an indicator dye, formulated to measure quantitatively the proliferation and cytotoxicity of the cells. The dye consists of an oxidation-reduction (redox) indicator that yields a calorimetric change and a fluorescent signal in response to cellular metabolic activity.
Assay protocol: Blood from a human was drawn and centrifuged at 1500 rpm for 15 minutes at room temperature. The buffy coat cells at the plasma-red blood cell interface were aspirated. Buffy coat cells (mainly lymphocyte cells) were then transferred into 15 ml centrifuge tubes containing 5 ml of RPMI-1640 medium+10% Fetal Bovine Serum (Gibco, Grand Island, N.Y.). Additional medium was added to the tubes to bring the volume up to 10 ml. The buffy coat suspension was then carefully layered on 5 ml of Histopaque (Sigma Chemical Co., St. Louis, Mo.) and centrifuged at 1500 rpm for 30 minutes at room temperature. The interface which is mostly PBMCs (peripheral mononuclear cells) was aspirated and transferred to a 15 ml conical centrifuge tube and, resuspended in 2 ml cold RPMI-1640 and brought up to 15 ml with cold RPMI-1640 medium. Cells were centrifuged at 1500 rpm for 10 minutes. The supernatant was then aspirated and discarded. The cell pellet was re-suspended in 1 ml of cold RPMI 1640 and brought up to 15 ml with RPMI medium. This step was repeated twice, except that in the last step, the cells were resuspended with 1 ml of cold RPMI-1640 medium and cell counts were performed with a hemocytometer according to the Sigma cell culture catalogue.
Pokewood mitogen was used as a control along with positive and negative controls. Negative control cells were killed with 70% methanol. Positive (+) control cells were incubated in RPMI medium (untreated). […] of AlamarBlue was added to the cells, and readings were taken after 24 hours, 48 hours, 72 hours, and 96 hours using a fluorimeter (excitation 544/transmission 590 nm).
Calculations were performed using the following formula. The peptide treated sample and positive control were adjusted for negative control. [formula]
Using the protocol described immediately above, about 100-150 peptides were screened for their stimulatory and/or inhibitory actions upon the growth of human leukocyte (“WBC”) cells as compared to the growth of untreated positive control cells.
The Alamar Blue stain used in the protocol permeates both cell and nuclear membranes, and is metabolized in the mitochondria to cause the change in color. The resulting fluorometric response is therefore a result of total mitochondrial activity caused by cell stimulation and/or mitosis (cell proliferation).

[2] = system: human red blood cells (RBC); experiment: in vitro; type: cell-based; details: for Peptide toxicity RBC LD/50: human red blood cells; for LD50: hemolytic assay, concentration at 50% hemolysis, 1 hour at 37° C.
[3] = system: Staphylococcus aureus ATCC 6538; experiment: Antimicrobial assay I, MIC by OD measurement; type: cell-based; details: 37° C. for 24 hours, absorbance 620 nm
[4] = system: Pseudomonas aeruginosa ATCC 9027; experiment: Antimicrobial assay I, MIC by OD measurement; type: cell-based; details: 37° C. for 24 hours, absorbance 620 nm
HeLaS3 = experiment: Anti-cancer assay, MTT, LD50; type: cell-based; details: 24 hours with peptide, cervical carcinoma
From the text: (§1) Numbers are LD50 values (μg/mL).

PC3 = experiment: Anti-cancer assay, MTT, LD50; type: cell-based; details: 24 hours with peptide, prostate adenocarcinoma
From the text: as §1

BMKC = experiment: Anti-cancer assay, MTT, LD50; type: cell-based; details: BMKC cloned melanoma line, 24 hours with peptide
From the text: as §1

MCF7 = experiment: Anti-cancer assay, MTT, LD50; type: cell-based; details: MCF7 breast adenocarcinoma line, MTT, 24 hours with peptide
From the text: as §1

H1299 = experiment: Anti-cancer assay, MTT, LD50; type: cell-based; details: 24 hours with peptide, lung large cell carcinoma
From the text: as §1

SW480 = experiment: Anti-cancer assay, MTT, LD50; type: cell-based; details: SW480 colon adenocarcinoma line, 24 hours with peptide
From the text: as §1

WI38 = details: MTT, 24 hours with peptide; normal fibroblast line
[5] = system: yeast (Saccharomyces cerevisiae); experiment: Antimicrobial assay I, yeast assay in RPMI 1640; type: cell-based; details: RPMI 1640 media
[6] = Peptide toxicity WI-38 LD/50, human fibroblast cells
[7] = LD50 WI38, WI38 normal lung fibroblast line, MTT, 24 hours with peptide

Compound | CC50 at 24 h (in vitro; [6]) [µg/mL] | Peptide treated cell activity Percent stimulation relative to control ([1]; 0.1 ug/ml) [%] | Peptide treated cell activity Percent stimulation relative to control ([1]; 1 ug/ml) [%] | Peptide treated cell activity Percent stimulation relative to control ([1]; 10 ug/ml) [%] | Peptide treated cell activity Percent stimulation relative to control ([1]; 100 ug/ml) [%] | Peptide treated cell activity Percent stimulation relative to control ([1]; 500 ug/ml) [%] | Peptide toxicity RBC LD/50 [2] | CC50 at 24 h (in vitro) [µg/mL] | staph6538 (MIC) [3] | paerug9027 (MIC) [4] [µg/mL] | HeLaS3 LD50 (HeLaS3) | PC3 LD50 (PC3) | LD50 BMKC (BMKC) [µg/mL] | LD50 MCF7 (MCF7) [µg/mL] | H1299 LD50 (H1299) | LD50 SW480 (SW480) [µg/mL] | WI38 LD50 (WI38) [µg/mL] | yeast (MIC or MFC) [5] [µg/mL] | CC50 at 24 h (in vitro; [7]) [µg/mL] | LD50 [2]
LPKWKVFKKIEKVGRNIRNGIVKAGPAIAVLGEAKALG-NH2 [compound 150] | 320 | 97 | 101 | 94 | 109 | 112 | >1000 |  |  |  |  |  |  |  |  |  |  |  |  | 
FAKKLAKLAKKLLAL-NH2 [compound 20] | 12 | 79 | 82 | 78 | 37 | 36 | 350 |  |  |  |  |  |  |  |  |  |  |  |  | 
VAKLLAKLAKKLL-NH2 [compound 30] | 60 | 74 | 68 | 62 | 13 | 13 | 130 |  |  |  |  |  |  |  |  |  |  |  |  | 
FAKLLALALKKAL-NH2 [compound 165] |  | 107 | 109 | 106 | 27 | 22 | 350 |  |  |  |  |  |  |  |  |  |  |  |  | 
FAKALAKLAKKLL-NH2 [compound 58] | 25 | 112 | 112 | 98 | 35 | 26 | 300 |  |  |  |  |  |  |  |  |  |  |  |  | 
MPKEKVFLKIEKMGRNIRN-NH2 [compound 71] | > 1000 | 101 | 100 | 108 | 109 | 110 | >1000 |  |  |  |  |  |  |  |  |  |  |  |  | 
MPKWKVFKKIEKVGRNIRNGIVKAGPAIAVLGEAKALG-NH2 [compound 5] | 950 | 111 | 115 | 118 | 116 | 101 | >1000 |  |  |  |  |  |  |  |  |  |  |  |  | 
CC(C)C[C@H](NC(=O)[C@H](C)NC(=O)[C@H](CC(C)C)NC(=O)[C@H](CCCCN)NC(=O)[C@H](C)NC(=O)[C@H](CC(C)C)NC(=O)[C@H](CCCCN)NC(=O)[C@H](CCCCN)NC(=O)[C@H](C)NC(=O)[C@H](CC(C)C)NC(=O)[C@H](CCCCN)NC(=O)[C@H](C)NC(=O)[C@H](CC(C)C)NC(=O)[C@H](CCCCN)NC(=O)[C@H](CCCCN)NC(=O)[C@H](C)NC(=O)[C@@H](N)Cc1ccccc1)C(N)=O [compound 17] | 8 (≈ 4.31 µM) | 82 | 76 | 61 | 18 | 16 | 200 |  |  |  |  |  |  |  |  |  |  |  |  | 
FAKKFAKKFKKFAKKFAKFAFAF-NH2 [compound 147] |  | 100 | 94 | 83 | 22 | 20 | 10 | 66 |  |  |  |  |  |  |  |  |  |  |  | 
FAKLA-NH2 [P128, FAKLA-NH2] |  |  |  |  |  |  |  |  | > (> indicates greater than 200 μg/mL) | 100 | 700 µg/mL | > (> indicates greater than 1000) | 330 | 500 | > (> indicates greater than 1000) | 530 | 500 | 200 | 500 | > (> indicates greater than 1000)
FALALKLKKL-NH2 [P181] |  |  |  |  |  |  |  |  | 100 µg/mL | 200 | > (> indicates greater than 1000) | > (> indicates greater than 1000) | 830 | 550 | > (> indicates greater than 1000) | 870 | 500 | 100 | 500 | > (> indicates greater than 1000)
FAKLLAKLAKKFAL-NH2 [P120, FAKLLAKLAKKFAL-NH2] |  |  |  |  |  |  |  |  | 50 µg/mL | 200 | 810 µg/mL | > (> indicates greater than 1000) | 660 | 730 | 620 µg/mL | 630 | 600 | 200 | 600 | > (> indicates greater than 1000)

From US20050209157A1, “Short bioactive peptides and methods for their use” (priority 2001, published 2005)
